Laboratory results as given in patent US20220079931A1, “ESTROGEN RECEPTOR PROTEIN DEGRADERS” (THE REGENTS OF THE UNIVERSITY OF MICHIGAN, priority 2019, published 2022).

Target: T1, VHL-ElonginBC complex (Homo sapiens, UniProt P40337)
T1 construct: His-TEV (His-tag with TEV protease site) (cleaved yes); made in house; host or cells: E. coli BL21(DE3)
Assay: Fluorescence-polarization (FP) competitive binding assay for VHL
Settings: VHL ligands; VHL-ElonginBC complex and fluorescent probe both 5 nM; read-out: FP Binding affinity IC50
Experimental: Cloning and Purification of VHL-ElonginBC complex. The DNA sequence of VHL (coding for residues 54-213) was constructed by PCR and inserted into a His-TEV expression vector^58 using ligation-independent cloning. The DNA sequences of Elongin B (encoding residues 1-118) and Elongin C (encoding residues 1-96) were constmcted by PCR and inserted into pCDFDuet 1 using Gibson assembly.^59 BL21(DE3) cells were transformed simultaneously with both plasmids and grown in Terrific Broth at 37° C. until an OD600 of 1.2. The cells were induced overnight with 0.4 mM IPTG at 24° C. Pelleted cells were freeze-thawed then resuspended in 20 mM Tris HCl pH7.0, 200 mM NaCl and 0.1% β-mercaptoethanol (bME) containing protease inhibitors. The cell suspension was lysed by sonication and debris removed via centrifugation. The supernatant was incubated at 4° C. for 1 hr with Ni-NTA (Qiagen) pre-washed in 20 mM Tris-HCl pH 7.0, 200 mM NaCl and 10 mM Imidazole. The protein complex was eluted in 20 mM Tris-HCl pH 7.0, 200 mM NaCl and 300 mM Imidazole, dialyzed into 20 mM Tris-HCl pH 7.0, 150 mM NaCl, and 0.01% bME and incubated with TEV protease overnight at 4° C. The protein sample was reapplied to the Ni-NTA column to remove the His-tag. The flow through containing the VHL complex was diluted to 75 mM NaCl and applied to a HiTrap Q column (GE Healthcare). The sample was eluted with a salt gradient (0.075-1 M NaCl), concentrated and further purified on a Superdex S75 column (GE Healthcare) pre-equilibrated with 20 mM Bis-Tris 7.0, 150 mM NaCl and 1 mM DTT. Samples were aliquoted and stored at −80° C.
Binding Affinities of VHL ligands to VHL. A fluorescence-polarization (FP) competitive assay was established using VHL-ElonginBC complex and a fluorescently tagged probe (SI). The IC50 and Ki values of VHL ligands were determined in competitive binding experiments. Mixtures of 5 μL of compounds in DMSO and 95 μL of preincubated protein/tracer complex solution were added into assay plates which were incubated at rt for 60 min with gentle shaking. Final concentrations of VHL-ElonginBC complex and fluorescent probe were both 5 nM. Negative controls containing protein/probe complex only (equivalent to 0% inhibition) and positive controls containing only free probes (equivalent to 100% inhibition) were included in each assay plate. FP values in millipolarization units (mP) were measured using the Infinite M-1000 plate reader (Tecan U.S., Research Triangle Park, N.C.) in Microfluor 1 96-well, black, round-bottom plates (Thermo Scientific, Waltham, Mass.) at an excitation wavelength of 485 nm and an emission wavelength of 530 nm. IC50 values were determined by nonlinear regression fitting of the competition curves. Ki values of competitive inhibitors were obtained directly by nonlinear regression fitting, based upon the KD values of the probe and concentrations of the protein and probe in the competitive assays. All the FP competitive experiments were performed in duplicate in three independent experiments.

Compound | IC50
C#Cc1ccc([C@H](C)NC(=O)[C@@H]2C[C@@H](O)CN2C(=O)[C@@H](NC(C)=O)C(C)(C)C)cc1 [44a, (2S,4R)-1-((S)-2-acetamido-3,3-dimethylbutanoyl)-N—((S)-1-(4-ethynylphenyl)ethyl)-4-hydroxypyrrolidine-2-carboxamide] | 0.879 ± 0.097 µM
CC(=O)N[C@H](C(=O)N1C[C@H](O)C[C@H]1C(=O)N[C@@H](C)c1ccc(C2CC2)cc1)C(C)(C)C [46a, (2S,4R)-1-((S)-2-acetamido-3,3-dimethylbutanoyl)-N—((S)-1-(4-cyclopropylphenyl)ethyl)-4-hydroxypyrrolidine-2-carboxamide] | 6.11 ± 0.82 µM
CC(=O)N[C@H](C(=O)N1C[C@H](O)C[C@H]1C(=O)N[C@@H](C)c1ccc(C#N)cc1)C(C)(C)C [45a, (2S,4R)-1-((S)-2-acetamido-3,3-dimethylbutanoyl)-N—((S)-1-(4-cyanophenyl)ethyl)-4-hydroxypyrrolidine-2-carboxamide] | 4.83 ± 0.418 µM
CC(=O)N[C@H](C(=O)N1C[C@H](O)C[C@H]1C(=O)N[C@@H](C)c1ccc(-c2scnc2C)cc1)C(C)(C)C [compound 11, (2S,4R)-1-((S)-2-Acetamido-3,3-dimethylbutanoyl)-4-hydroxy-N—((S)-1-(4-(4-methylthiazol-5-yl)phenyl)ethyl)pyrrolidine-2-carboxamide, reference compound] | 0.196 ± 0.006 µM
CC(=O)N[C@H](C(=O)N1C[C@H](O)C[C@H]1C(=O)N[C@@H](C)c1ccc(Cl)cc1)C(C)(C)C [43a, (2S,4R)-1-((S)-2-acetamido-3,3-dimethylbutanoyl)-N—((S)-1-(4-chlorophenyl)ethyl)-4-hydroxypyrrolidine-2-carboxamide] | 7.87 ± 0.642 µM

Target: T2, ERα (Homo sapiens, UniProt P03372)
T2 sequence (P03372 1-595): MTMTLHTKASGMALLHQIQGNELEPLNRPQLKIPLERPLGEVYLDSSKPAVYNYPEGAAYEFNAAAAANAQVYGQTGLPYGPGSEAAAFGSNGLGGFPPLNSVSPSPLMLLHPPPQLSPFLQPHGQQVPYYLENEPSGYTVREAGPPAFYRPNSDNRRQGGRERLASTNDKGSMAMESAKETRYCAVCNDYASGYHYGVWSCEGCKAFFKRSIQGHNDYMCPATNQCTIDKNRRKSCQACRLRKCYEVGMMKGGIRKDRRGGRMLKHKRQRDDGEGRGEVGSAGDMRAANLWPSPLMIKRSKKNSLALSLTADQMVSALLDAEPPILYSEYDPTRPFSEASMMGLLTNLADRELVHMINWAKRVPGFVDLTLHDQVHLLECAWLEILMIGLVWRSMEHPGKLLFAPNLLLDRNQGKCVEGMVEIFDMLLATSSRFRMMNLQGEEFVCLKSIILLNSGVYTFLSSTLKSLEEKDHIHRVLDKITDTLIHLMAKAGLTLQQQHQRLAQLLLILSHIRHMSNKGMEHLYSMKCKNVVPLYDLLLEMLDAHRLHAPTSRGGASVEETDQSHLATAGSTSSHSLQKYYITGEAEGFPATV
Assay: ER degradation by Western blotting in MCF-7 cells
Assay type: cell-based
Parameters: host or cells: MCF-7
Settings: 1 nM, 10 nM and 100 nM, 4 h, linkers containing 6-9 carbon atoms
Experimental: FIG. 1 is an image showing the Western blotting analysis of ER protein in MCF-7 cells treated with Compounds of the Disclosure and control compounds. Cells were treated with different compounds for 4 h and whole cell lysates were then analyzed by Western blotting to examine the level of ER protein. GADPH protein was used for the loading control. The numbers below the panel represent the ERα/GADPH ratio normalized with the DMSO control at 100.
FIG. 2 is an image showing the Western blotting analysis of ER protein in the MCF-7 cells treated with indicated compounds at 1 nM, 10 nM and 100 nM. MCF-7 cells were treated with different compounds for 4 h and whole cell lysates were analyzed by Western blotting to examine the level of ER protein. GADPH protein was used for the loading control. The numbers below the panel represent the ERα/GADPH ratio normalized with the DMSO control at 100.
FIG. 7 is an image showing the ERα degradation dose-response Western blotting for compound 32 at 4 h in MCF-7 cells.
FIG. 9 is an image showing the time course of ERα degradation by Western blotting by compound 32 (30 nM) and fulvestrant (30 nM) in the MCF-7 cells.
Cell Culture. Human breast cancer cell lines MCF-7 (ATCC® HTB-22™) and T47D (ATCC® HTB-133™) were purchased from the American Type Culture Collection (ATCC), Manassas, Va., and maintained and cultured in Dulbecco's Modified Eagle's medium (DMEM) containing 10% fetal bovine serum, 1 unit/ml of penicillin and 1 μg/ml of streptomycin. Cells with 3-8 passages after purchase were used in experiments as indicated.
Western Blot Analysis. Western blot analysis was performed essentially as described previously (Hu et al, 2015, PMID: 26358219). Cells treated with indicated compounds were lysed in Radioimmunoprecipitation Assay Protein Lysis and Extraction Buffer (25 mmol/L Tris.HCl, pH 7.6, 150 mmol/L NaCl, 1% Nonidet P-40, 1% sodium deoxycholate, and 0.1% sodium dodecyl sulfate) containing proteinase inhibitor cocktail (Roche Diagnostics, Mannheim, Germany). After determination of protein concentration by BCA assay (Fisher Scientific, Pittsburgh, Pa.), equal amounts of total protein were electrophoresed through 10% SDS-polyacrylamide gels. The separated protein bands were transferred onto PVDF membranes (GE Healthcare Life Sciences, Marlborough, Mass.) and blotted against different antibodies, as indicated. The human estrogen receptor a antibodies (AB16460) were purchased from Abeam, Inc., Cambridge, Mass. The membranes were reblotted with horseradish peroxidase-conjugated anti-glyceraldehyde-3-phosphate dehydrogenase antibody (G9295) from Sigma-Aldrich Corporation, St. Louis, Mo. The blots were scanned and the band intensities were quantified using GelQuant.NET software as described in biochemlabsolutions.com. The relative mean intensity of target proteins was expressed after normalization to the intensity of glyceraldehyde-3-phosphate dehydrogenase bands from individual repeats.

Compound | ER degradation (Western blotting)
CCN(CCCCCCCC(=O)N[C@H](C(=O)N1C[C@H](O)C[C@H]1C(=O)N[C@@H](C)c1ccc(-c2scnc2C)cc1)C(C)(C)C)CCOc1ccc(C(=O)c2c(-c3ccc(O)cc3)sc3cc(O)ccc23)cc1 [compound 15, (2S,4R)-1-((S)-2-(8-(Ethyl(2-(4-(6-hydroxy-2-(4-hydroxyphenyl)benzo[b]thiophene-3-carbonyl)phenoxy)ethyl)amino)octanamido)-3,3-dimethylbutanoyl)-4-hydroxy-N—((S)-1-(4-(4-methylthiazol-5-yl)phenyl)ethyl)pyrrolidine-2-carboxamide] | surprisingly effective in inducing ER degradation at concentrations as low as 1 nM
CCN(CCCCCC(=O)N[C@H](C(=O)N1C[C@H](O)C[C@H]1C(=O)N[C@@H](C)c1ccc(-c2scnc2C)cc1)C(C)(C)C)CCOc1ccc(C(=O)c2c(-c3ccc(O)cc3)sc3cc(O)ccc23)cc1 [compound 18, (2S,4R)-1-((S)-2-(6-(Ethyl(2-(4-(6-hydroxy-2-(4-hydroxyphenyl)benzo[b]thiophene-3-carbonyl)phenoxy)ethyl)amino)hexanamido)-3,3-dimethylbutanoyl)-4-hydroxy-N—((S)-1-(4-(4-methylthiazol-5-yl)phenyl)ethyl)pyrrolidine-2-carboxamide] | surprisingly effective in inducing ER degradation at concentrations as low as 1 nM
CCN(CCCCCCCCC(=O)N[C@H](C(=O)N1C[C@H](O)C[C@H]1C(=O)N[C@@H](C)c1ccc(-c2scnc2C)cc1)C(C)(C)C)CCOc1ccc(C(=O)c2c(-c3ccc(O)cc3)sc3cc(O)ccc23)cc1 [compound 20, (2S,4R)-1-((S)-2-(9-(Ethyl(2-(4-(6-hydroxy-2-(4-hydroxyphenyl)benzo[b]thiophene-3-carbonyl)phenoxy)ethyl)amino)nonanamido)-3,3-dimethylbutanoyl)-4-hydroxy-N—((S)-1-(4-(4-methylthiazol-5-yl)phenyl)ethyl)pyrrolidine-2-carboxamide] | surprisingly effective in inducing ER degradation at concentrations as low as 1 nM
CCN(CCCCCCCCCC(=O)N[C@H](C(=O)N1C[C@H](O)C[C@H]1C(=O)N[C@@H](C)c1ccc(-c2scnc2C)cc1)C(C)(C)C)CCOc1ccc(C(=O)c2c(-c3ccc(O)cc3)sc3cc(O)ccc23)cc1 [compound 21, (2S,4R)-1-((S)-2-(10-(Ethyl(2-(4-(6-hydroxy-2-(4-hydroxyphenyl)benzo[b]thiophene-3-carbonyl)phenoxy)ethyl)amino)decanamido)-3,3-dimethylbutanoyl)-4-hydroxy-N—((S)-1-(4-(4-methylthiazol-5-yl)phenyl)ethyl)pyrrolidine-2-carboxamide] | surprisingly effective in inducing ER degradation at concentrations as low as 1 nM
CCN(CCCCCCC(=O)N[C@H](C(=O)N1C[C@H](O)C[C@H]1C(=O)N[C@@H](C)c1ccc(-c2scnc2C)cc1)C(C)(C)C)CCOc1ccc(C(=O)c2c(-c3ccc(O)cc3)sc3cc(O)ccc23)cc1 [compound 19, (2S,4R)-1-((S)-2-(7-(Ethyl(2-(4-(6-hydroxy-2-(4-hydroxyphenyl)benzo[b]thiophene-3-carbonyl)phenoxy)ethyl)amino)heptanamido)-3,3-dimethylbutanoyl)-4-hydroxy-N—((S)-1-(4-(4-methylthiazol-5-yl)phenyl)ethyl)pyrrolidine-2-carboxamide] | surprisingly effective in inducing ER degradation at concentrations as low as 1 nM
